Laboratory results: patent US6046190A, “Hydroxyethylamino sulphonamides useful as retroviral protease inhibitors” (G.D. Searle & Co., priority 1996, dated 2000)

How the values were obtained:
[1] = in vitro; conditions: human
Excerpt: (§1) Methods, 20, 309-321 (1988).
(§2) [table 42: the next 8 blocks are its lines as printed, fixed-width]

[2] = tested on: HIV-1 in CEM cells; experiment: HIV inhibition assay of acutely infected CEM cells (tetrazolium/MTT colorimetric), antiviral efficacy; type: cell-based; conditions: Human immunodeficiency virus 1, CCRF-CEM, 168 h
Excerpt: as §1, §2

[3] = biological target: T1, HIV protease (Human immunodeficiency virus type 1 group M subtype B, UniProt P04585); experiment: biochemical; type: biochemical; conditions: Table 21; above-described enzyme assay
T1 construct: HIV protease is diluted in the assay buffer to a final enzyme concentration of 12.3 nanomolar, based on a molecular weight of 10,780
Method: The enzyme method is described below. […] The positive control is MVT-101 (Miller, M. et al, Science, 246, 1149 (1989)]. The assay conditions are as follows:
20 mM sodium phosphate, pH 6.4
The above described substrate is dissolved in DMSO, then diluted 10 fold in assay buffer. Final substrate concentration in the assay is 80 μM.
The final concentration of DMSO is 14% and the final concentration of glycerol is 18%. The test compound is dissolved in DMSO and diluted in DMSO to 10× the test concentration; 10 μl of the enzyme preparation is added, the materials mixed and then the mixture is incubated at ambient temperature for 15 minutes. The enzyme reaction is initiated by the addition of 40μl of substrate. The increase in fluorescence is monitored at 4 time points (0, 8, 16 and 24 minutes) at ambient temperature. Each assay is carried out in duplicate wells.

| Structure (SMILES) | CC50 at 168 h ([1]; cem cells) | EC50 [2] | IC50 [3] | CC50 at 168 h [1] |
| --- | --- | --- | --- | --- |
| CCCN(C[C@@H](O)[C@H](Cc1ccccc1)NC(=O)[C@H](CC(N)=O)NC(=O)OCc1ccccc1)S(=O)(=O)c1ccccc1 [Example 7] | 39 nM | 25 nM | 3 nM |  |
| COc1ccc(S(=O)(=O)N(CC(C)C)C[C@@H](O)[C@H](Cc2ccccc2)NC(=O)OCc2cccnc2)cc1 [Example 17] |  | 5 nM |  | 59000 nM |
| COc1ccc(S(=O)(=O)N(CC(C)C)C[C@@H](O)[C@H](Cc2ccccc2)NC(=O)OCc2ccncc2)cc1 [Example 22] |  | 18 nM |  | 31000 nM |
| COc1ccc(S(=O)(=O)N(CC(C)C)C[C@@H](O)[C@H](Cc2ccccc2)NC(=O)OCc2ccc[n+]([O-])c2)cc1 [Example 25] |  | 120 nM |  | 167000 nM |
| COc1ccc(S(=O)(=O)N(CC(C)C)C[C@@H](O)[C@H](Cc2ccccc2)NC(=O)OC(C)(C)C)cc1 [Example 27] | 300000 nM | 177 nM |  |  |
| COc1ccc(S(=O)(=O)N(CC(C)C)C[C@@H](O)[C@H](Cc2ccccc2)NC(=O)c2ccccc2)cc1 [Example 28] |  | 76 nM |  | 213000 nM |
| COc1ccc(S(=O)(=O)N(CC(C)C)C[C@@H](O)[C@H](Cc2ccccc2)NC(=O)c2ccccc2C)cc1 [Example 29] |  | 105 nM |  | 196000 nM |
| COc1ccc(S(=O)(=O)N(CC(C)C)C[C@@H](O)[C@H](Cc2ccccc2)NC(=O)c2ccccc2Cl)cc1 [Example 30] |  | 154 nM |  | 154000 nM |
| COc1ccc(S(=O)(=O)N(CC(C)C)C[C@@H](O)[C@H](Cc2ccccc2)NC(=O)c2c(C)cccc2C)cc1 [Example 32] |  | 98 nM |  | 17000 nM |
